{
  "source": "patent US20190142979A1",
  "about": "“CONTRAST MEDIUM AND METHODS INVOLVED IN PREPARATION FOR THE DETERMINATION OF PATENCY OF CONDUITS” (priority 2016, published 2019)",
  "origin": "cited, not measured here",
  "data": [
    {"smiles": "CCN(CC)CC(=O)Nc1c(C)cccc1C", "note": "[Lidocaine]", "values": [
      {"measurement": "alteration of fertility levels", "setting": "post administration", "value": "not reported"},
      {"measurement": "safety", "setting": "upon injection into uterine cavity or into peritoneal cavity", "value": "highly safe"}
    ]}
  ]
}
